In patent US6342225B1, “Pharmaceutical active conjugates” (Deutshces Wollforschungsinstitut, priority 1993, dated 2002):

Key:
[1] = target: T1, thyroxine binding globulin (TBG) (Homo sapiens, UniProt P05543); assay: optical biosensor IAsys kinetic binding to immobilized TBG; conditions: control, 500 μg/ml
T1 sequence (P05543 21-415): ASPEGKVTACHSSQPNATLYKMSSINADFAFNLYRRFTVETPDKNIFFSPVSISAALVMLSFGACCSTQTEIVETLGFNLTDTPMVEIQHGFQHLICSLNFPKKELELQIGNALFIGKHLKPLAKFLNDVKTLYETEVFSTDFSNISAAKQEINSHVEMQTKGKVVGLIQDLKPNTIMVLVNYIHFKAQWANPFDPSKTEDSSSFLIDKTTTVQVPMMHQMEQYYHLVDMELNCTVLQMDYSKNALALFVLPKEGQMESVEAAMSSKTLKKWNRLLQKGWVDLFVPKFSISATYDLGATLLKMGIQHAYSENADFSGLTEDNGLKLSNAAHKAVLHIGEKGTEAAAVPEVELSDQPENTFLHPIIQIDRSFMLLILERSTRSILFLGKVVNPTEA
Protocol: The optical bio-sensor IAsys makes it possible to record biomolecular interactions in real time and thus kinetical studies.
The surface of the cuvette is covered with a carboxymethylated dextran matrix (CMD), to which the plasma protein TBG is immobilized.
Immobilization of TBG to the carboxymethylated matrix is detected via the change of the resonance angle.
For the kinetical studies the Thyroid-Insulin conjugate was injected into the microcuvette in dilution series of 200, 300, 400 and 500 μg/ml in HBS/Tween-buffer at 25° C. To test for reproducibility, all measurements were repeated 3 times.
As a control, native insulin was injected at high concentration (500 μg/ml). […] For further measurements the surface of the microcuvette was rinsed several times with buffer.
Determination of “on-rate” constants kon at various ligand concentrations CL allow kon to be plotted against CL according to equation (4). This gives the association rate constant kA from the slope and the dissociation rate constant kD at C2=O. It has, however, to be taken into account that the error of kD becomes too large when kD<0,01 s^−1 (IAsys, METHODS GUIDE).

[2] = tested on: hepatic glucose output and peripheral uptake; conditions: British Diabetic Association conference 1989; cited from earlier work
[3] = tested on: glucose production (Ra) and glucose disposal (Rd); assay: glucose turnover during infusion with D-3H-3-glucose in anaesthetized beagles, euglycaemia maintained; assay type: in vivo; conditions: mean±SEM
Protocol: Euglycaemia and glucose specific activity were maintained by variable infusion of D-glucose with D-^3H-3-glucose.
In each experiment insulin-like activity for Ra and Rd was calculated as the area between the basal values of each of these variables and subsequent values plotted graphically against time (AUC).

native insulin: native insulin injected at 500 μg/ml as control in the biosensor study
association to immobilized TBG [1]: association cannot be observed

proinsulin: the zymogen which is cleaved to form the active hormone insulin
hepatoselectivity (effect on hepatic glucose output versus peripheral uptake and utilisation) [2]: shows this hepatoslectivity to a smaller degree

insulin
AUC for Ra (glucose production), area between basal and subsequent values against time [3]: -431 ± 121 mg/kg
AUC for Rd (glucose disposal), area between basal and subsequent values against time [3]: 1142 ± 160 mg/kg
